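Dose response: 5 concentrations. Exposure: 48 h. Format: 96-well plates. Endpoint: linear interpolation; highest concentration if not reached. GI50 = concentration required for 50% inhibition of growth. TGI is the concentration that stops growth completely.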

Among the data in PubChem BioAssay (NCI) are TGI and GI50 values, retold here.

Some test systems named below: ACHN renal; HCC-2998 colon; HS 578T breast; NCI/ADR-RES ovarian; OVCAR-3 ovarian; OVCAR-5 ovarian; OVCAR-8 ovarian; SF-268 CNS; SN12C renal; UO-31 renal.
Common to all, as to assay: inhibition of tumour cell growth, NCI panel, 48 h

For the molecule `O=c1oc2ccc([N+](=O)[O-])cc2c(Nc2ccc3c(c2)Sc2ccccc2O3)c1[N+](=O)[O-]`, the TGI turned out to be 72 µM with ACHN renal; 26.4 µM with HCC-2998 colon; 90.9 µM in the test with HS 578T breast; 85.5 µM in the test on NCI/ADR-RES ovarian; 31 µM in the test on OVCAR-3 ovarian; 47.2 µM with OVCAR-5 ovarian. For the same molecule, the TGI with OVCAR-8 ovarian turned out to be 77.3 µM; with SF-268 CNS, 61.6 µM; in the test on SN12C renal it was 51.2 µM; in the test with UO-31 renal it was 37.8 µM.
Turning to `CCOC(=O)c1sc2nc(SC)nc3c2c1NCN3c1ccc(F)c(F)c1`, the TGI is above 100 µM with ACHN renal; above 64 µM with HCC-2998 colon; 30.8 µM in the test on HS 578T breast; above 88.8 µM in the test on NCI/ADR-RES ovarian; 19.5 µM in the test on OVCAR-3 ovarian; above 100 µM in the test with OVCAR-5 ovarian. Moreover, the TGI in the test with OVCAR-8 ovarian is 29.4 µM; in the test on SF-268 CNS, above 100 µM; in the test with SN12C renal, above 100 µM; in the test with UO-31 renal, above 63.3 µM.
Turning to `C=C1C(=O)O[C@H]2[C@H]3O[C@@H](C[C@@H]12)[C@@]1(C)CC[C@H](O1)[C@H](C)CCC[C@H]3C`, the TGI came to 2.84 µM in the test with ACHN renal; 2.57 µM in the test with HCC-2998 colon; 12.4 µM in the test with HS 578T breast; 2.99 µM with NCI/ADR-RES ovarian; 2.37 µM in the test with OVCAR-3 ovarian; 3.38 µM with OVCAR-5 ovarian. Further, the TGI in the test with OVCAR-8 ovarian was 2.82 µM; in the test on SF-268 CNS, 3.34 µM; in the test on SN12C renal, 6.61 µM; in the test with UO-31 renal, 2.9 µM.
For `C=CC(OC(C)=O)c1ccc(OC(=O)C(C)C)c(OC)c1` (stereo not given), the TGI in the test with ACHN renal is 10.4 µM; in the test with HCC-2998 colon it was 29.5 µM; with HS 578T breast it was above 80.6 µM; with NCI/ADR-RES ovarian, 60.8 µM; in the test on OVCAR-3 ovarian, 12.4 µM; in the test on OVCAR-5 ovarian it was 6.29 µM. In addition, the TGI in the test with OVCAR-8 ovarian is 11.1 µM; with SF-268 CNS, 38.9 µM; with SN12C renal it was 15.2 µM; in the test on UO-31 renal, 10.9 µM.
Turning to `COc1ccc2c(c1)C/C(=C\c1cccc3ccccc13)C2=O`, the TGI was above 100 µM in the test on ACHN renal; above 100 µM in the test with HCC-2998 colon; above 100 µM in the test on HS 578T breast; above 100 µM in the test on NCI/ADR-RES ovarian; 50.4 µM in the test with OVCAR-3 ovarian; above 100 µM in the test with OVCAR-5 ovarian. The TGI with OVCAR-8 ovarian, in the test with SF-268 CNS, in the test with SN12C renal and in the test with UO-31 renal was above 100 µM in each case.
On to `O=C(CCCCCCCCC(=O)N1C(=O)CC(=O)N(c2ccccc2)C1=S)N1C(=O)CC(=O)N(c2ccccc2)C1=S`, for which the TGI with ACHN renal, in the test with HCC-2998 colon, in the test on HS 578T breast, in the test with NCI/ADR-RES ovarian, in the test with OVCAR-3 ovarian and with OVCAR-5 ovarian was above 100 µM throughout. Besides, the TGI with OVCAR-8 ovarian, in the test on SF-268 CNS, in the test with SN12C renal and with UO-31 renal was above 100 µM each time.
Turning to `Nc1ccccc1.[C-]#[O+].[C-]#[O+].[C-]#[O+].[C-]#[O+].[C-]#[O+].[Cr]`, the GI50 in the test with ACHN renal is 4.84 µM; in the test on HCC-2998 colon, 6.17 µM; with HS 578T breast, 3.28 µM; in the test with NCI/ADR-RES ovarian it was 2.76 µM; with OVCAR-3 ovarian it was 3.18 µM; in the test with OVCAR-5 ovarian it was above 10 µM. Moreover, the GI50 was 4.03 µM in the test on OVCAR-8 ovarian, 6.56 µM in the test with SF-268 CNS, 3.9 µM in the test with SN12C renal and 1.86 µM in the test with UO-31 renal. The TGI in the test with ACHN renal was above 10 µM; in the test on HCC-2998 colon, above 10 µM; in the test on HS 578T breast it was above 10 µM; in the test with NCI/ADR-RES ovarian, 9.79 µM; in the test on OVCAR-3 ovarian, above 10 µM; with OVCAR-5 ovarian, above 10 µM. Besides, the TGI in the test with OVCAR-8 ovarian was above 10 µM; with SF-268 CNS, above 10 µM; with SN12C renal, above 10 µM; in the test on UO-31 renal, 9.66 µM.
Regarding `COC(=O)/C=C\C(C#N)(C#N)N=Cc1ccccc1`, the TGI in the test on ACHN renal was found to be 6.35 µM; in the test with HCC-2998 colon, 35.1 µM; with HS 578T breast, 36.2 µM; in the test with NCI/ADR-RES ovarian it was 9.03 µM; with OVCAR-3 ovarian, 4.97 µM; in the test on OVCAR-5 ovarian, 38.7 µM. The TGI with OVCAR-8 ovarian came out at 4.38 µM; in the test with SF-268 CNS, 11.4 µM; in the test with SN12C renal it was 26.6 µM; with UO-31 renal, 7.23 µM.
As to `COc1cc(O)c2c(=O)c3c(C)cccc3n(C)c2c1`, the TGI in the test on ACHN renal, in the test with HCC-2998 colon, with HS 578T breast, with NCI/ADR-RES ovarian, in the test on OVCAR-3 ovarian and with OVCAR-5 ovarian was above 10 µM each time. Also, the TGI in the test on OVCAR-8 ovarian, in the test on SF-268 CNS, with SN12C renal and with UO-31 renal was above 10 µM each time.
On to `COc1cc2oc(=O)cc(C)c2cc1O`, for which the TGI with ACHN renal, in the test on HCC-2998 colon, in the test with HS 578T breast, with NCI/ADR-RES ovarian, in the test on OVCAR-3 ovarian and with OVCAR-5 ovarian was above 100 µM each time. Besides, the TGI in the test with OVCAR-8 ovarian, in the test with SF-268 CNS, with SN12C renal and in the test with UO-31 renal was above 100 µM each time.
As for `COC(OC)C1OCC(n2cc(F)c(=O)[nH]c2=O)C1O` (stereo not given), the TGI with ACHN renal, with HCC-2998 colon, in the test on HS 578T breast, in the test with NCI/ADR-RES ovarian, with OVCAR-3 ovarian and in the test with OVCAR-5 ovarian was above 100 µM in each case. In addition, the TGI with OVCAR-8 ovarian, in the test with SF-268 CNS, with SN12C renal and with UO-31 renal was above 100 µM each time.
Consider `CCCCCCCCCCCCc1ccc(S(=O)(=O)O)cc1.[Zn+2]`, for which the TGI in the test on ACHN renal, with HCC-2998 colon, in the test with HS 578T breast, with NCI/ADR-RES ovarian, in the test with OVCAR-3 ovarian and in the test on OVCAR-5 ovarian was above 100 µM in each case. Moreover, the TGI with OVCAR-8 ovarian, in the test with SF-268 CNS, in the test on SN12C renal and in the test on UO-31 renal was above 100 µM in each case.
Consider `CSc1cc(-c2ccccn2)nc(-c2ccccn2)c1`, for which the TGI in the test on ACHN renal is 0.977 µM; in the test on HCC-2998 colon, 12.9 µM; in the test on HS 578T breast, 48.9 µM; with NCI/ADR-RES ovarian, 1 µM; with OVCAR-3 ovarian it was 5 µM; in the test on OVCAR-5 ovarian, 9.46 µM. Further, the TGI in the test with OVCAR-8 ovarian is 12.5 µM; with SF-268 CNS it was above 35.2 µM; in the test on SN12C renal, 13.4 µM; with UO-31 renal it was 1.64 µM.
On to `C(/Cc1ccc2c(c1)OCO2)=N\NC1=NCCN1`, for which the TGI with ACHN renal, in the test on HCC-2998 colon, in the test with HS 578T breast, in the test with NCI/ADR-RES ovarian, with OVCAR-3 ovarian and in the test with OVCAR-5 ovarian was above 100 µM in each case. The TGI with OVCAR-8 ovarian, with SF-268 CNS, in the test with SN12C renal and with UO-31 renal was above 100 µM throughout.
On to `O=c1sc2c(s1)-c1sc(=O)sc1SS2`, for which the TGI with ACHN renal was above 100 µM; in the test with HCC-2998 colon, above 100 µM; with HS 578T breast it was above 100 µM; with NCI/ADR-RES ovarian, above 76.3 µM; in the test on OVCAR-3 ovarian it was above 100 µM; in the test with OVCAR-5 ovarian, above 75.3 µM. Moreover, the TGI is 48.9 µM in the test with OVCAR-8 ovarian, above 100 µM in the test on SF-268 CNS, above 100 µM in the test with SN12C renal and above 100 µM in the test with UO-31 renal.
Turning to `COC(=O)C1=C(OC(=O)/C=C/c2ccccc2)C(C(=O)OC)[C@@]2(O)[C@@H](C(=O)OC)[C@H](C)C[C@@H]1[C@@H]2C(=O)OC` (stereo not given in full), the TGI is above 100 µM in the test on ACHN renal; 48.7 µM in the test with HCC-2998 colon; 50.1 µM in the test with HS 578T breast; 41.5 µM in the test on NCI/ADR-RES ovarian; 54.1 µM in the test on OVCAR-3 ovarian; 46.1 µM in the test on OVCAR-5 ovarian. The TGI in the test with OVCAR-8 ovarian is 46.2 µM; with SF-268 CNS, 92 µM; in the test with SN12C renal it was 41.7 µM; in the test on UO-31 renal, above 100 µM.
As to `Cc1ccc(C(=O)N(Cc2ccccc2)Cc2ccccc2)cc1N=NN(C)C`, the TGI is above 92.7 µM with ACHN renal; 96 µM in the test on HCC-2998 colon; 75.2 µM in the test on HS 578T breast; above 100 µM with NCI/ADR-RES ovarian; 43.1 µM in the test on OVCAR-3 ovarian; above 100 µM in the test with OVCAR-5 ovarian. The TGI was above 100 µM with OVCAR-8 ovarian, above 100 µM in the test on SF-268 CNS, above 81.1 µM with SN12C renal and above 71 µM in the test on UO-31 renal.
Consider `C=C1c2nc3ccccc3n2C=C(c2ccc(C)cc2)N1c1ccc(C)cc1`, for which the TGI in the test on ACHN renal is above 100 µM; in the test on HCC-2998 colon, above 72.9 µM; in the test on HS 578T breast, above 100 µM; in the test on NCI/ADR-RES ovarian it was above 78.9 µM; with OVCAR-3 ovarian it was above 100 µM; with OVCAR-5 ovarian it was above 100 µM. The TGI in the test with OVCAR-8 ovarian, in the test with SF-268 CNS, with SN12C renal and in the test with UO-31 renal was above 100 µM each time.
On to `O=C(CCCCCC(=O)N1CC(CCl)c2ccc([N+](=O)[O-])cc21)N1CC(CCl)c2ccc([N+](=O)[O-])cc21` (stereo not given), for which the TGI in the test on ACHN renal, in the test with HCC-2998 colon, with HS 578T breast, in the test with NCI/ADR-RES ovarian, with OVCAR-3 ovarian and in the test with OVCAR-5 ovarian was above 100 µM throughout. The TGI in the test with OVCAR-8 ovarian, in the test on SF-268 CNS, in the test on SN12C renal and in the test with UO-31 renal was above 100 µM each time.
